Literature values in US6235494A, “Substrates for assessing mannan-binding protein-associated serine protease activity and methods using the substrates” (The Scripps Research Institute, priority 1999, dated 2001).

Columns and labels:
alternative pathway [1] = test system: alternative pathway
classical pathway [2] = test system: classical pathway
classical pathway [3] = test system: classical pathway; remark: listed apart in the source
[4] = test system: kallikrein (plasma and pancreatic)
[5] = test system: complement activation (C3a and C4a); details: normal individuals
alternative pathway [6] = test system: alternative pathway; remark: listed apart in the source

SMILES	C4a generated in whole blood (C4a; benzamidine added, before EDTA)	block of the alternative pathway (alternative pathway [1])	block of the classical pathway (classical pathway [2])	inhibition of MASP activity (MASP)	block of the coagulation pathway (coagulation pathway)	C4a generated upon addition of EDTA (C4a; benzamidine-containing whole blood, EDTA added)	complement proteinase target Factor B (Factor B)	effective toward Factor Xa (Factor Xa)	inhibition of thrombin (thrombin)	complement proteinase target C1s (C1s)	inhibition of complement-mediated hemolysis by the classical pathway (classical pathway [3])	inhibition of kallikrein (plasma and pancreatic) [4]	complement proteinase target Factor D (Factor D)	MASP activity (MASP; in EDTA)	stabilization of freshly drawn blood samples [5]	inhibition of plasmin (plasmin)	inhibition of complement-mediated hemolysis by the alternative pathway (alternative pathway [6])	complement proteinase target C1r (C1r)	effective toward Hageman factor (Hageman factor)
N=C(N)c1ccccc1 [benzamidine]	no C4a generated	blocks	blocks	does not inhibit MASP activity	blocks	–	–	–	–	–	–	–	–	–	–	–	–	–	–
O=C(O)CN(CCN(CC(=O)O)CC(=O)O)CC(=O)O [EDTA, ethylened laminetetraacetic acid]	–	–	–	–	–	high levels of C4a are generated	–	–	–	–	–	–	–	–	–	–	–	–	–
CS(=O)(=O)O.CS(=O)(=O)O.N=C(N)Nc1ccc(C(=O)Oc2ccc3cc(C(=N)N)ccc3c2)cc1 [Futhan, 6-amidino-2-naphthyl p-guanidinobenzoate dimethanesulfonate]	–	–	–	inhibits MASP	–	–	complement proteinase targets	sub-micromolar level	inhibits	complement proteinase targets	inhibits	inhibits	complement proteinase targets	no MASP activity is observed	effectively stabilizes freshly drawn blood samples	inhibits	inhibits	complement proteinase targets	sub-micromolar level
